A word on the melting point: it is the temperature of the solid-liquid transition.

The text below walks through data of patent US6803457B1, “Compounds for the treatment of ischemia” (Pfizer, Inc., priority 1999, dated 2004).

Compound `CNC(=O)[C@H]1O[C@@H](n2cnc3c(NCc4cc(Cl)ccc4OCc4ccc5ccccc5n4)ncnc32)[C@H](O)[C@@H]1N` [Example 32, (2S,3S,4R,5R)3-Amino-5-{6-[5-chloro-2-(quinolin-2-ylmethoxy)benzylamino]purin-9-yl}-4-hydroxytetrahydrofuran-2-carboxylic acid methylamide] came in with a melting point of 130 to 134 °C.

Turning to `CNC(=O)[C@H]1O[C@@H](n2cnc3c(NCc4cc(Cl)ccc4OCc4snnc4C)ncnc32)[C@H](O)[C@@H]1N` [Example 33, (2S,3S,4R,5R)3-Amino-5-{6-[5-chloro-2-(4-methyl-[1,2,3]thiadiazol-5-ylmethoxy)benzylamino]purin-9-yl}-4-hydroxytetrahydrofuran-2-carboxylic acid methylamide], the melting point was 107 to 110 °C.
